Experimental findings from ChEMBL document CHEMBL5465560, “Selectivity Literature for EUbOPEN Chemogenomic Library” (2024) are described below.

Structures are written as SMILES.

Assay [1] concerns the target Homeodomain-interacting protein kinase 4 (Homo sapiens, UniProt Q8NE63). Description: Selectivity interaction (NanoBRET assay (using HEK293T cells)) EUB0000008b HIPK4. The format is cell-based, HEK-293T.
The target of assay [2] is T1, Homeodomain-interacting protein kinase 2 (Homo sapiens, UniProt Q9H2X6). Nature of the assay: Selectivity interaction (Eurofins kinase panel) EUB0000008b HIPK2. The following applies: at 1 µM.
Target sequence in this assay (Q9H2X6 whole entry, looked up): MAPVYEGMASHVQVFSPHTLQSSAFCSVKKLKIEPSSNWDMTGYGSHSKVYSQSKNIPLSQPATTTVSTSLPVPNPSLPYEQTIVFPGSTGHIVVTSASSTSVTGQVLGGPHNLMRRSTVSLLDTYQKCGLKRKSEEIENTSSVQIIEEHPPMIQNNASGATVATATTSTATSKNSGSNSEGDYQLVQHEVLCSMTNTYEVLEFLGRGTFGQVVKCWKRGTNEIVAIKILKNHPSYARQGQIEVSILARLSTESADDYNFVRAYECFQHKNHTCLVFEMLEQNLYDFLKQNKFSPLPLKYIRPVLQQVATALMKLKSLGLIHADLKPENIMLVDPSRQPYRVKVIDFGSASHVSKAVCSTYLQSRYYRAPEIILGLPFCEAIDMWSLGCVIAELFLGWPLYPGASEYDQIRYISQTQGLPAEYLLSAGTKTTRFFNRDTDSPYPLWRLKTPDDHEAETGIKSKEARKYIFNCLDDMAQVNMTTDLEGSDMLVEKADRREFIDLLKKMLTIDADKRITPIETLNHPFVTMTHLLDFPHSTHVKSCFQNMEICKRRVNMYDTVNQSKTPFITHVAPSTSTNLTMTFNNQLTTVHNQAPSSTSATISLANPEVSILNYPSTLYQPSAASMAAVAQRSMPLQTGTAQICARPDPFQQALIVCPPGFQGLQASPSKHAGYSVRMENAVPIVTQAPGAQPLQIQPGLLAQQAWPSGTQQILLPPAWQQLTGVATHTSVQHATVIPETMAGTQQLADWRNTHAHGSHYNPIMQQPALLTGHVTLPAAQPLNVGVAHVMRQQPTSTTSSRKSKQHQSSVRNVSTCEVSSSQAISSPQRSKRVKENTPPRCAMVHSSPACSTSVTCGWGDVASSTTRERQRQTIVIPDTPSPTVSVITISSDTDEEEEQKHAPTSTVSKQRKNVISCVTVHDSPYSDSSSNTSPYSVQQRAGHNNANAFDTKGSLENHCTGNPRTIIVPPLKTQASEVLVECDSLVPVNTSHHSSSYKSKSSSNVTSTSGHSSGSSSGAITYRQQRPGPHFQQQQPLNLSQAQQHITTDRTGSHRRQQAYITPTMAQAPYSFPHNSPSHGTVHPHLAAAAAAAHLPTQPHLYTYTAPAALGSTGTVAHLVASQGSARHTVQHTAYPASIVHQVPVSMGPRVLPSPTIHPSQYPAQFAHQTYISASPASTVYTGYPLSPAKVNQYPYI
The target in assay [3] is T1, Homeodomain-interacting protein kinase 2. Nature of the assay: Selectivity interaction (Eurofins binding assay) EUB0000008b HIPK2.
Target sequence in this assay (Q9H2X6 whole entry): as the sequence (Q9H2X6 whole entry, looked up) above
Assay [4] addresses T2, Glycogen synthase kinase-3 alpha (Homo sapiens, UniProt P49840). Nature of the assay: Selectivity interaction (Eurofins kinase panel) EUB0000008b GSK3A. The following applies: at 1 µM.
In assay [5] the target is T1, Homeodomain-interacting protein kinase 2. Nature of the assay: Selectivity interaction (NanoBRET assay (using HEK293T cells)) EUB0000008b HIPK2. Type of assay: cell-based, HEK-293T.
Target sequence in this assay (Q9H2X6 whole entry): as the sequence (Q9H2X6 whole entry, looked up) above
The target of assay [6] is Homeodomain-interacting protein kinase 3 (Homo sapiens, UniProt Q9H422). Nature of the assay: Selectivity interaction (Eurofins kinase panel) EUB0000008b HIPK3. To be noted: at 1 µM.
The target in assay [7] is CDK11A/Cyclin L2 (Homo sapiens) (UniProt Q9UQ88+Q96S94). Description: Selectivity interaction (NanoBRET assay in HEK293T cells) EUB0001631a CDK11A. The format is cell-based. The following applies: HEK-293T, at 10 µM.
In assay [8] the target is CDK1/Cyclin E (Homo sapiens) (UniProt P06493+P24864). Description: Selectivity interaction (NanoBRET assay in HEK293T cells) EUB0001631a CDK1. The format is cell-based. To be noted: HEK-293T, at 10 µM.
The target in assay [9] is CDK20/Cyclin H (Homo sapiens) (UniProt P51946+Q8IZL9). Description: Selectivity interaction (NanoBRET assay in HEK293T cells) EUB0001631a CDK20. The following applies: HEK-293T, at 10 µM. Type of assay: cell-based.
For assay [10], the target named is Cyclin-dependent kinase 2/cyclin E (Homo sapiens) (UniProt P24864+P24941+O96020). Description: Selectivity interaction (KinaseProfilerTM (Merck Millipore) ) EUB0001631a CDK2. The format is protein-complex assay. To be noted: at 10 µM.
Assay [11] has as its target CDK17/Cyclin-Y (Homo sapiens) (UniProt Q00537+Q8ND76). Nature of the assay: Selectivity interaction (NanoBRET assay in HEK293T cells) EUB0001631a CDK17. Type of assay: cell-based. To be noted: HEK-293T, at 10 µM.
The target in assay [12] is CDK8/Cyclin C (Homo sapiens) (UniProt P49336+P24863). Description: Selectivity interaction (NanoBRET assay in HEK293T cells) EUB0001631a CDK8. The format is cell-based. To be noted: HEK-293T, at 10 µM.
Assay [13] addresses CDK1/Cyclin E (Homo sapiens) (UniProt P06493+P24864+O96020). Description: Selectivity interaction (KinaseProfilerTM (Merck Millipore) ) EUB0001631a CDK1. The following applies: at 10 µM. Type of assay: protein-complex assay.
Assay [14] concerns the target CDK9/Cyclin K (Homo sapiens) (UniProt P50750+O75909). Nature of the assay: Selectivity interaction (NanoBRET assay in HEK293T cells) EUB0001631a CDK9. The format is cell-based. To be noted: HEK-293T, at 10 µM.
The target of assay [15] is CDK12/Cyclin K (Homo sapiens) (UniProt O75909+Q9NYV4). Nature of the assay: Selectivity interaction (NanoBRET assay in HEK293T cells) EUB0001631a CDK12. The format is cell-based. The following applies: HEK-293T, at 10 µM.
The target of assay [16] is Cyclin-dependent kinase 4/cyclin D1 (Homo sapiens) (UniProt P11802+P24385). Description: Selectivity interaction (NanoBRET assay in HEK293T cells) EUB0001631a CDK4. The format is cell-based. The following applies: HEK-293T, at 10 µM.
Assay [17] concerns the target Cyclin-Y/Cyclin-dependent kinase 16 (Homo sapiens) (UniProt Q00536+Q8ND76). Nature of the assay: Selectivity interaction (NanoBRET assay in HEK293T cells) EUB0001631a CDK16. Type of assay: cell-based. To be noted: HEK-293T, at 10 µM.
Assay [18] has as its target CDK10/Cyclin L2 (Homo sapiens) (UniProt Q15131+Q96S94). Description: Selectivity interaction (NanoBRET assay in HEK293T cells) EUB0001631a CDK10. Type of assay: cell-based. The following applies: HEK-293T, at 10 µM.
Assay [19] has as its target CDK11B/Cyclin L2 (Homo sapiens) (UniProt P21127+Q96S94). Description: Selectivity interaction (NanoBRET assay in HEK293T cells) EUB0001631a CDK11B. Type of assay: cell-based. To be noted: HEK-293T, at 10 µM.
In assay [20] the target is T3, Cyclin-dependent kinase 5/CDK5 activator 1 (Homo sapiens) (UniProt Q00535+Q15078). Description: Selectivity interaction (NanoBRET assay in HEK293T cells) EUB0001631a CDK5. The format is cell-based. The following applies: HEK-293T, at 10 µM.
T3 sequence (Q00535 whole entry): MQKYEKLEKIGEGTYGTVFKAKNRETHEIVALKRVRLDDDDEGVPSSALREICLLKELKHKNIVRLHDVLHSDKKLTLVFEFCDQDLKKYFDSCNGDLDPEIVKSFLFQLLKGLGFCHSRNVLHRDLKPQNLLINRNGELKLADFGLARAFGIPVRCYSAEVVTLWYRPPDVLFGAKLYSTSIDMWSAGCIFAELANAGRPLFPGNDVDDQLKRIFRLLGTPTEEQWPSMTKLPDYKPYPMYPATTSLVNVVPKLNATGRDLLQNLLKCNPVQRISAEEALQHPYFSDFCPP
T3 sequence (Q15078 99-307 partner limits assumed): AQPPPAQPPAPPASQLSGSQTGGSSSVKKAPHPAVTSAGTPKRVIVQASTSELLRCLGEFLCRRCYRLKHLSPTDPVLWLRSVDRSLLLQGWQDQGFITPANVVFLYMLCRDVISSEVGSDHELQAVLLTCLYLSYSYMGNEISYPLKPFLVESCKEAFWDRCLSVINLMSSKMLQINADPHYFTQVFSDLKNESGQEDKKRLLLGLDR
Assay [21] addresses Cyclin-dependent kinase 14/Cyclin-Y (Homo sapiens) (UniProt O94921+Q8ND76). Description: Selectivity interaction (NanoBRET assay in HEK293T cells) EUB0001631a CDK14. The format is cell-based. The following applies: HEK-293T, at 10 µM.
Assay [22] has as its target CDK3/cyclin E (Homo sapiens) (UniProt P24864+O96020+Q00526). Description: Selectivity interaction (KinaseProfilerTM (Merck Millipore) ) EUB0001631a CDK3. Type of assay: protein-complex assay. To be noted: at 10 µM.
For assay [23], the target named is CDK18/Cyclin Y (Homo sapiens) (UniProt Q07002+Q8ND76). Nature of the assay: Selectivity interaction (NanoBRET assay in HEK293T cells) EUB0001631a CDK18. To be noted: HEK-293T, at 10 µM. Type of assay: cell-based.
Assay [24] addresses CDK15/Cyclin Y (Homo sapiens) (UniProt Q96Q40+Q8ND76). Nature of the assay: Selectivity interaction (NanoBRET assay in HEK293T cells) EUB0001631a CDK15. Type of assay: cell-based. The following applies: HEK-293T, at 10 µM.
Assay [25] concerns the target High affinity nerve growth factor receptor (Homo sapiens, UniProt P04629). Description: Selectivity interaction (KinaseProfilerTM (Merck Millipore) ) EUB0001631a NTRK1. To be noted: at 10 µM.
Assay [26] concerns the target Tyrosine-protein kinase Fyn (Homo sapiens) (UniProt P06241). Description: Selectivity interaction (KinaseProfilerTM (Merck Millipore) ) EUB0001631a FYN. To be noted: at 10 µM.
Assay [27] has as its target Mast/stem cell growth factor receptor Kit (Homo sapiens, UniProt P10721). Nature of the assay: Selectivity interaction (KinaseProfilerTM (Merck Millipore) ) EUB0001631a KIT. To be noted: at 10 µM.
Assay [28] concerns the target Glycogen synthase kinase-3 beta (Homo sapiens, UniProt P49841). Nature of the assay: Selectivity interaction (KinaseProfilerTM (Merck Millipore) ) EUB0001631a GSK3B. To be noted: at 10 µM.
Assay [29] concerns the target T4, Ephrin type-A receptor 1 (Homo sapiens) (UniProt P21709).
T4 sequence (whole entry): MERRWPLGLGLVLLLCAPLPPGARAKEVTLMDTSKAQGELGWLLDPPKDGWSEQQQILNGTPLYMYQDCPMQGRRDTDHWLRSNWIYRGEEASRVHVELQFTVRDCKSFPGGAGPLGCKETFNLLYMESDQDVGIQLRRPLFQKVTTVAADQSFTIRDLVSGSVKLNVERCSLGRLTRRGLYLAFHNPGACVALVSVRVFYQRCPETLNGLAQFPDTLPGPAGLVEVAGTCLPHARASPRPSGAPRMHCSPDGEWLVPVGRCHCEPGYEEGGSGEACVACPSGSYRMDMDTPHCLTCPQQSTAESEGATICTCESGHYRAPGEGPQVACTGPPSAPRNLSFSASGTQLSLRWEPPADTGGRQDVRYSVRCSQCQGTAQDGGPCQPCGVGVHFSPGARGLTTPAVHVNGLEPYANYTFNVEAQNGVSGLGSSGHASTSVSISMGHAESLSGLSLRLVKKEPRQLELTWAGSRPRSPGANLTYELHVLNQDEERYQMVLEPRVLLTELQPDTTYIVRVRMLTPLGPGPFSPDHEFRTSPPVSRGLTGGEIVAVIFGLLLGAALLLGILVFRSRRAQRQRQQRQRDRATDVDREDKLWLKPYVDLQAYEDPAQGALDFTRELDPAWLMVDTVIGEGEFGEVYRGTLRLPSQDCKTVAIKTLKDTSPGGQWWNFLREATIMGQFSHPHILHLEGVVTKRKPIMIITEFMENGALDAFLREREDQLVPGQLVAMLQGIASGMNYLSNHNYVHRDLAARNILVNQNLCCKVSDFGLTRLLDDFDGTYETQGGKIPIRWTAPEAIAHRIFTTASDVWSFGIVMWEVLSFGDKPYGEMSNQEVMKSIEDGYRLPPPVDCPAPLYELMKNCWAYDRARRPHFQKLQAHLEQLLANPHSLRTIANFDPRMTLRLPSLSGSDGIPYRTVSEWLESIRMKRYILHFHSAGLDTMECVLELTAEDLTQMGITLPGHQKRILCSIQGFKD
Description: Selectivity interaction (KinaseProfilerTM (Merck Millipore) ) EUB0001631a EPHA1. The following applies: at 10 µM.

Assay [30] has as its target Cyclin-dependent kinase 7 (Homo sapiens, UniProt P50613). Description: Selectivity interaction (NanoBRET assay in HEK293T cells) EUB0001631a CDK7. The format is cell-based. The following applies: HEK-293T, at 10 µM.
Assay [31] deals with Vascular endothelial growth factor receptor 3 (Homo sapiens, UniProt P35916). Nature of the assay: Selectivity interaction (KinaseProfilerTM (Merck Millipore) ) EUB0001631a FLT4. To be noted: at 10 µM.
In assay [32] the target is Cyclin-dependent kinase 13/Cyclin-K (Homo sapiens) (UniProt Q14004+O75909). Description: Selectivity interaction (NanoBRET assay in HEK293T cells) EUB0001631a CDK13. The format is cell-based. To be noted: HEK-293T, at 10 µM.
For assay [33], the target named is Cyclin-C/Cyclin-dependent kinase 19 (Homo sapiens) (UniProt Q9BWU1+P24863). Nature of the assay: Selectivity interaction (NanoBRET assay in HEK293T cells) EUB0001631a CDK19. The format is cell-based. To be noted: HEK-293T, at 10 µM.
Assay [34] addresses T3, Cyclin-dependent kinase 5/CDK5 activator 1 (Homo sapiens). Nature of the assay: Selectivity interaction (KinaseProfilerTM (Merck Millipore) ) EUB0001631a CDK5. The following applies: at 10 µM. The format is protein-complex assay.
The target in assay [35] is Cyclin-dependent kinase 2/cyclin E1 (Homo sapiens) (UniProt P24864+P24941). Nature of the assay: Selectivity interaction (NanoBRET assay in HEK293T cells) EUB0001631a CDK2. The format is cell-based. To be noted: HEK-293T, at 10 µM.
For assay [36], the target named is T2, Glycogen synthase kinase-3 alpha. Nature of the assay: Selectivity interaction (KinaseProfilerTM (Merck Millipore) ) EUB0001631a GSK3A. To be noted: at 10 µM.
For assay [37], the target named is CDK3/Cyclin E (Homo sapiens) (UniProt P24864+Q00526). Nature of the assay: Selectivity interaction (NanoBRET assay in HEK293T cells) EUB0001631a CDK3. Type of assay: cell-based. To be noted: HEK-293T, at 10 µM.
Sequence of CDK3/Cyclin E (Homo sapiens) (P24864 whole entry, looked up): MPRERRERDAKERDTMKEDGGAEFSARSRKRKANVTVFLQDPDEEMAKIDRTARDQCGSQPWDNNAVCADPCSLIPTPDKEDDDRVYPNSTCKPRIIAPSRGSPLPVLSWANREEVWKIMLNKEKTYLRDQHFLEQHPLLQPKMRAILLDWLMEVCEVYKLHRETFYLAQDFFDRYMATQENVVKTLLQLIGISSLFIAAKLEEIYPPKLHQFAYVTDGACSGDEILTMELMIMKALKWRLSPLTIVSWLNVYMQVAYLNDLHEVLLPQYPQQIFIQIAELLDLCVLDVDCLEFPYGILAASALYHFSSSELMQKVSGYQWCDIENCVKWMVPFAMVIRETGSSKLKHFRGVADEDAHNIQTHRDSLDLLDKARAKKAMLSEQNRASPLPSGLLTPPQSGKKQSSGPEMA
Sequence of CDK3/Cyclin E (Homo sapiens) (Q00526 whole entry, looked up): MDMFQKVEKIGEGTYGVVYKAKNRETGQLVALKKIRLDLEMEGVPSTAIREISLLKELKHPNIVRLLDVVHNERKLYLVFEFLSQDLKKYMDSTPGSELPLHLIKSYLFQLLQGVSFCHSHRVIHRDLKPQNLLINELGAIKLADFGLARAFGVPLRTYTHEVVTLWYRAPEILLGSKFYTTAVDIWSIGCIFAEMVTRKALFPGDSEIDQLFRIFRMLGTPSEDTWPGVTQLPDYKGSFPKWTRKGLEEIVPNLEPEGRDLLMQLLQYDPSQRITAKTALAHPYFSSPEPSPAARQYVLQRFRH
The target in assay [38] is CDK6/cyclin D1 (Homo sapiens) (UniProt P24385+Q00534). Description: Selectivity interaction (NanoBRET assay in HEK293T cells) EUB0001631a CDK6. Type of assay: cell-based. To be noted: HEK-293T, at 10 µM.

T2 sequence (P49840 2-483 limits assumed): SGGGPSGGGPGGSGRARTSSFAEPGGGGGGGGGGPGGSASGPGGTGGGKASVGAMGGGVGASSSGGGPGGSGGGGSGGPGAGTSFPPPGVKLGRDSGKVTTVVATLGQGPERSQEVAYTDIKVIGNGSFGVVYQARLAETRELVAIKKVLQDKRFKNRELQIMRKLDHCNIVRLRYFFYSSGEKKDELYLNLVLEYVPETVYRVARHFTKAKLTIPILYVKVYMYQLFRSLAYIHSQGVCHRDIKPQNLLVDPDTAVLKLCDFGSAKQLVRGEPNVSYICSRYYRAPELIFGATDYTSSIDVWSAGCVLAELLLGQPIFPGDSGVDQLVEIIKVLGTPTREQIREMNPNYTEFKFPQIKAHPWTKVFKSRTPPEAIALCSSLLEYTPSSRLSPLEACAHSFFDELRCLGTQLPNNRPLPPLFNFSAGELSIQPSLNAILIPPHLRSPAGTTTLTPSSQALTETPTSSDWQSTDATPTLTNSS
Sequence of Mast/stem cell growth factor receptor Kit (P10721 whole entry): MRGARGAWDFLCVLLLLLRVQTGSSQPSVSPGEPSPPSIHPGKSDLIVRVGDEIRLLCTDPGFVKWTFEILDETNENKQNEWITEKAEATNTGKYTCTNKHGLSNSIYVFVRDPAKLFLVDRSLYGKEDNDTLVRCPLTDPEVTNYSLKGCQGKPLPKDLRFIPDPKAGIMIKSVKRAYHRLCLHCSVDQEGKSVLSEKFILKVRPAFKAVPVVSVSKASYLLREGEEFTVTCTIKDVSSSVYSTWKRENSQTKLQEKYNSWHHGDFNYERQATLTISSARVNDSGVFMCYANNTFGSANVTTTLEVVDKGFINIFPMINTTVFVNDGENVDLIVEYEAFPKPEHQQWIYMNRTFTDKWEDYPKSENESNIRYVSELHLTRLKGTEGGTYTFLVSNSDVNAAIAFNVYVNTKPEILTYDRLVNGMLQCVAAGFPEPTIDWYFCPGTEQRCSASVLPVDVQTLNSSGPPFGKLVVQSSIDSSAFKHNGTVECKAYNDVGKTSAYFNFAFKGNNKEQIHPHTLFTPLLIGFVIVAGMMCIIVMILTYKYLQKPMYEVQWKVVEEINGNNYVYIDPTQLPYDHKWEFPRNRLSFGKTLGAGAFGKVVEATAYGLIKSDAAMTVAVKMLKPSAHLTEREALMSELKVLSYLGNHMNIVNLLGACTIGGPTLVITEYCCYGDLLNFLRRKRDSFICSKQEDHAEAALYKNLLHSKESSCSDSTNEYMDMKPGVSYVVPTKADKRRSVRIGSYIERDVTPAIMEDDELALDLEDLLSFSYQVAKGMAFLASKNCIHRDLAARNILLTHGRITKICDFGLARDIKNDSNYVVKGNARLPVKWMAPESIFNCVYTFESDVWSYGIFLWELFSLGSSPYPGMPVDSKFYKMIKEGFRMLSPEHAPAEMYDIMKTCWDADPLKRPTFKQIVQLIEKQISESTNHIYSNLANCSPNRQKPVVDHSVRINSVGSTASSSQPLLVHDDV
Sequence of Glycogen synthase kinase-3 beta (P49841 whole entry, looked up): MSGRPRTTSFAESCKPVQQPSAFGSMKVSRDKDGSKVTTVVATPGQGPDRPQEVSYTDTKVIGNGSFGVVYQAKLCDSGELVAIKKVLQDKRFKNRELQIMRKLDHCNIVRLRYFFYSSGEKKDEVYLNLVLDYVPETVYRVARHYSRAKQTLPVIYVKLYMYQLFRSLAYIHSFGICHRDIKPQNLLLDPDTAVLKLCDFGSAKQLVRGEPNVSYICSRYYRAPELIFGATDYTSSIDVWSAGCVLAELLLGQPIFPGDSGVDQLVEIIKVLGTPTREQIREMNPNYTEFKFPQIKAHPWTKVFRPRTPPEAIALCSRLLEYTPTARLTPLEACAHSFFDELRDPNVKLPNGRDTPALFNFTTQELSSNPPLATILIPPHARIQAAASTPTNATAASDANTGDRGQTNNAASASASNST
Sequence of Homeodomain-interacting protein kinase 4 (Q8NE63 whole entry): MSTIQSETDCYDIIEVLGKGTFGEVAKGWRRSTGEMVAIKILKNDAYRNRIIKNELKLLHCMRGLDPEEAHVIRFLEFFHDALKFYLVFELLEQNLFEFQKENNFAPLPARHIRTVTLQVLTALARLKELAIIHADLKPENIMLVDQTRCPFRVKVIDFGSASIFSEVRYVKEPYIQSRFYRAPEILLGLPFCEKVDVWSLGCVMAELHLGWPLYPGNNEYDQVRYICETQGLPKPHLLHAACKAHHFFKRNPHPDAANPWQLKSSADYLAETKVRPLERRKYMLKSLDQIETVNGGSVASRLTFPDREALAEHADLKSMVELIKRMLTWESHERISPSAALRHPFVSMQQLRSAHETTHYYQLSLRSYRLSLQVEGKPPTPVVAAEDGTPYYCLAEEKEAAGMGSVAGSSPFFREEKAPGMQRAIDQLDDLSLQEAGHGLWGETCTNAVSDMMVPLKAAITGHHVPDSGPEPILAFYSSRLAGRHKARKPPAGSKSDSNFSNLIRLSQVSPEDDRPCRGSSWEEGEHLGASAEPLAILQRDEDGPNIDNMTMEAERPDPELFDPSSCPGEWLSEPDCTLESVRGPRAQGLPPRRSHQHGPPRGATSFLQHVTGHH

Turning to `Cn1cc(-c2ccc3occ(-c4cccc(-c5ccncc5)c4)c3n2)cn1`, the values for the IC50 in assay [1], in [3] and in assay [5] were 5.41 µM, 23 nM and > 10 µM, respectively. In addition, the figures for the % of activity in [2], in assay [4] and in assay [6] were 99%, 90% and 94%, respectively.

In the case of `COc1cc(F)ccc1-c1ncnc(Nc2cccc(C[S@](C)(=N)=O)c2)n1`, the % of inhibition in assay [7] is 10%; in [8] it was 16.6%; in assay [9] it was 1.3%; in assay [11], 31%; in assay [12], 3%; in assay [14], 97.9%. The % of inhibition in [15] was 8.2%; in assay [16], 31.5%; in assay [17], 38.6%; in assay [18], 6.3%; in assay [19], 7.4%; in [20] it was 26.1%. Besides, the % of inhibition in assay [21] worked out at 3%; in assay [23] it was 19.9%; in assay [24], 4.5%; in [30], 16.8%; in assay [32], 4.8%; in [33] it was 11.1%. Also, the % of inhibition in [35] is 41.7%; in assay [37], 48.4%; in assay [38], 64.1%. In addition, the % of control in [10] stood at 13%; in [13] it was 14%; in assay [22] it was 10%; in [25] it was 20%; in assay [26], 24%; in [27] it was 6%. For the same compound, the % of control in assay [28] is 3%; in [29] it was 20%; in assay [31], 30%; in [34] it was 20%; in [36] it was 4%.
